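Briefly, cells in 96-well plates were exposed to five compound concentrations for 48 h, and endpoints were estimated by linear interpolation. GI50 marks 50% less growth. TGI marks complete inhibition of growth.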

This is an account of results in PubChem BioAssay (NCI).

Among the test systems are A498 renal; A549 NSCLC; KM12 colon; M14 melanoma; MOLT-4 leukemia; PC-3 prostate; SF-295 CNS; SW-620 colon; T-47D breast; MALME-3M melanoma.
Holding throughout (assay): inhibition of tumour cell growth, NCI panel, 48 h

Regarding `COc1cc2c(cc1-c1coc3cc(O)ccc3c1=O)OCO2`, the TGI with A498 renal was 80.5 µM; with A549 NSCLC it was 77.4 µM; with KM12 colon, over 100 µM; in the assay with M14 melanoma, over 100 µM; in the assay with MOLT-4 leukemia, over 100 µM; in the assay on PC-3 prostate, over 100 µM. Also, the figures for the TGI in the assay with SF-295 CNS, in the assay with SW-620 colon and in the assay on T-47D breast were 38.9 µM, over 100 µM and 65.6 µM, respectively.
Regarding `COC(=O)c1cccc(NC(=O)c2ccc(NC3=C(Cl)C(=O)N(Cc4ccccc4)C3=O)cc2)c1`, the GI50 in the assay with A498 renal is 26.3 µM; in the assay on A549 NSCLC it was 17500 nM; in the assay on KM12 colon, 19700 nM; with M14 melanoma, 9750 nM; with MOLT-4 leukemia, 12500 nM; with PC-3 prostate, 15100 nM. For the same compound, the GI50 in the assay on SF-295 CNS was 17.6 µM; in the assay with SW-620 colon it was 22300 nM; in the assay with T-47D breast, 4460 nM. Besides, the TGI with A498 renal turned out to be 73 µM; in the assay with A549 NSCLC, 48.7 µM; in the assay with KM12 colon, 41.7 µM; in the assay with M14 melanoma, 23 µM; in the assay with MOLT-4 leukemia, 56.5 µM; in the assay on PC-3 prostate, 28.3 µM. For the same compound, the TGI in the assay on SF-295 CNS worked out at 57.8 µM; with SW-620 colon, 86.5 µM; in the assay on T-47D breast, 63.3 µM.
As to `C=C(Br)COc1ccc2c(C)cc(=O)oc2c1`, the TGI in the assay with A498 renal was over 100 µM; with A549 NSCLC, over 100 µM; in the assay on KM12 colon it was 12.1 µM; in the assay with M14 melanoma it was over 100 µM; in the assay with MALME-3M melanoma, over 100 µM; in the assay with MOLT-4 leukemia it was over 100 µM. The TGI was over 100 µM in the assay on PC-3 prostate, over 100 µM with SW-620 colon and 87.2 µM with T-47D breast.
As for `CC(=O)Nc1cc2c3c(cccc3c1)-c1ccccc1-2`, the GI50 in the assay with A498 renal was 11.6 µM; in the assay with A549 NSCLC it was 3720 nM; in the assay on KM12 colon, 32700 nM; in the assay with M14 melanoma, over 100000 nM; in the assay on MOLT-4 leukemia, 5720 nM; in the assay on PC-3 prostate, 14800 nM. Further, the GI50 in the assay with SF-295 CNS is 5.13 µM; in the assay on SW-620 colon, 95600 nM; in the assay with T-47D breast, 37300 nM. Also, the TGI in the assay on A498 renal is 28.6 µM; in the assay with A549 NSCLC it was over 100 µM; in the assay on KM12 colon it was over 100 µM; with M14 melanoma, over 100 µM; with MOLT-4 leukemia it was over 100 µM; in the assay with PC-3 prostate it was over 100 µM. Moreover, the values for the TGI in the assay with SF-295 CNS, with SW-620 colon and in the assay on T-47D breast were 22.6 µM, over 100 µM and over 100 µM, respectively.
For `O=C(Nc1cccc(-n2cc(-c3ccncc3)c(-c3ccc(Cl)c(O)c3)n2)c1)Nc1ccc(Cl)c(Cl)c1`, the GI50 in the assay with A498 renal is 0.94 µM; in the assay on A549 NSCLC it was 1010 nM; with KM12 colon it was 1010 nM; in the assay with M14 melanoma, 1180 nM; with MALME-3M melanoma it was 1190 nM; in the assay with MOLT-4 leukemia, 1380 nM. The GI50 in the assay on PC-3 prostate was 834 nM; with SW-620 colon, 1460 nM; in the assay with T-47D breast it was 1550 nM. Besides, the TGI in the assay with A498 renal is 3.17 µM; with A549 NSCLC, over 32.5 µM; with KM12 colon it was 4.47 µM; with M14 melanoma it was 6.97 µM; in the assay with MALME-3M melanoma, 8.1 µM; with MOLT-4 leukemia, over 32.5 µM. The TGI in the assay on PC-3 prostate is over 32.5 µM; in the assay with SW-620 colon it was over 32.5 µM; in the assay with T-47D breast, 17.9 µM.
As to `COc1cc(N2CCC(N)CC2)ccc1Nc1ncc(Cl)c(-c2c[nH]c3ccccc23)n1`, the GI50 in the assay with A498 renal was 0.123 µM; in the assay on A549 NSCLC it was 248 nM; in the assay with KM12 colon, 302 nM; in the assay on M14 melanoma, 373 nM; in the assay with MOLT-4 leukemia it was 1400 nM; with PC-3 prostate, 1000 nM. Besides, the results for the GI50 in the assay on SF-295 CNS, in the assay on SW-620 colon and in the assay on T-47D breast were 1.54 µM, 183 nM and 1780 nM, respectively. The TGI with A498 renal came out at 0.386 µM; in the assay on A549 NSCLC, 1.65 µM; with KM12 colon it was 1.14 µM; in the assay on M14 melanoma, 1.73 µM; in the assay on MOLT-4 leukemia it was 4.86 µM; in the assay on PC-3 prostate, 3.63 µM. For the same compound, the TGI in the assay with SF-295 CNS stood at 3.31 µM; with SW-620 colon, 1.44 µM; in the assay with T-47D breast, 4.72 µM.
For `COc1c(B(O)O)cccc1-c1nc2c(F)cc3n[nH]c(C)c3c2c2c1CCCC2`, the GI50 with A549 NSCLC was 1130 nM; in the assay on KM12 colon, 1310 nM; with M14 melanoma it was 2280 nM; in the assay with MALME-3M melanoma, 2500 nM; in the assay on MOLT-4 leukemia, 272 nM; in the assay on PC-3 prostate, 1460 nM. Further, the figures for the GI50 in the assay on SF-295 CNS, in the assay on SW-620 colon and with T-47D breast were 1.28 µM, 727 nM and 1330 nM, respectively. The TGI in the assay with A549 NSCLC is over 50 µM; with KM12 colon, over 50 µM; with M14 melanoma it was 8.93 µM; in the assay with MALME-3M melanoma it was 7.73 µM; in the assay on MOLT-4 leukemia, over 50 µM; in the assay with PC-3 prostate, over 50 µM. For the same compound, the values for the TGI with SF-295 CNS, with SW-620 colon and with T-47D breast were over 40.6 µM, over 50 µM and over 23.2 µM, respectively.
`CCc1ncc(CO)n1Cc1cccc2ccccc12`: the TGI with A498 renal, in the assay with A549 NSCLC, in the assay on KM12 colon, in the assay on M14 melanoma, in the assay on MALME-3M melanoma and in the assay with PC-3 prostate was over 100 µM throughout. Besides, the TGI in the assay with SF-295 CNS, with SW-620 colon and with T-47D breast was over 100 µM throughout.
With `CC1(C)C(CC(=O)O)CCCC1CC(=O)O` (centres undefined), the TGI in the assay with A498 renal, in the assay on A549 NSCLC, in the assay with KM12 colon, in the assay with M14 melanoma, in the assay with MOLT-4 leukemia and in the assay with PC-3 prostate was over 100 µM in each case. The TGI with SF-295 CNS, with SW-620 colon and in the assay with T-47D breast was over 100 µM each time.
In the case of `CC(C)C1=CC2=C(C(=O)C1=O)C13CCCC(C)(C)C1CC2OC3=O` (centres undefined), the TGI was 52.2 µM in the assay on A498 renal; over 100 µM in the assay on A549 NSCLC; over 100 µM in the assay on KM12 colon; 70.6 µM with M14 melanoma; 32.7 µM with MOLT-4 leukemia; 63.2 µM in the assay with PC-3 prostate. Further, the TGI in the assay with SF-295 CNS was over 100 µM; with SW-620 colon, 35.2 µM; with T-47D breast it was 48.4 µM.
As to `COC1C(=O)CCC2(CO2)C1(O)C1(C)OC1CC=C(C)C` (centres undefined), the TGI was over 100 µM with A498 renal; over 100 µM with A549 NSCLC; over 100 µM with KM12 colon; 53.2 µM in the assay with M14 melanoma; 83.2 µM with MOLT-4 leukemia; over 100 µM in the assay on PC-3 prostate. For the same compound, the TGI in the assay with SF-295 CNS, in the assay with SW-620 colon and with T-47D breast was over 100 µM throughout.
